Data published in patent US20140288079A1, “SGC STIMULATORS OF SGC ACTIVATORS IN COMBINATION WITH PDE5 INHBITORS FOR THE TREATMENT OF ERECTILE DYSFUNCTION” (BAYER PHARMA AKTIENGESELLSCHAFT, priority 2009, published 2014).

What was measured:
[1] = test system: conscious male chinchilla rabbits; assay: conscious rabbit ED model, low SNP dose (0.02 mg/kg i.v.), PDE5-resistant ED; type: in vivo
Procedure: (§1) The conscious rabbit ED model previously described (Bischoff and Schneider 2001) was used for the investigation of Erectile function. In brief: conscious male chinchilla rabbits (3-4 kg) were orally treated with the test compounds or with vehicle via gavage, followed by i.v. injection of the NO-donnor sodium nitro-prusside (SNP) in the ear vein, 90 minutes after oral applications. The SNP injections were done in a high dose setting (0.2 mg/kg SNP i.v) and a low dose setting (0.02 mg/kg SNP i.v.) corresponding to the general ED-population and the PDE5 non-responder ED-population, respectively. Penile length was quantified in 5 minutes intervals after injection of the SNP.

[2] = test system: conscious male chinchilla rabbits; assay: conscious rabbit ED model, high SNP dose (0.2 mg/kg i.v.), general ED population; type: in vivo; details: summary of Example 1; rabbits and rats; in the range of vardenafil
Procedure: as §1
The conscious rabbit ED model previously described (Bischoff and Schneider 2001) was used for the investigation of Erectile function as described in Example 1. The SNP injections were done in a high dose setting (0.2 mg/kg SNP i.v) corresponding to the general ED-population in which PDE5 inhibitors are fully active. Penile length was quantified in 5 minutes intervals after injection of the SNP.
The conscious rabbit ED model as described in Expample 1 and Example 6 was used for assessment of responderrates. […] Penile length was quantified in 5 minutes intervals after injection of the SNP. […]

[3] = test system: conscious male chinchilla rabbits; assay: haemodynamic effects by telemetry in conscious rabbits; type: in vivo, rabbit; details: stand alone
Source text: In brief, telemetric implants (C50 PXT-DSI®) were used. Signals were received with RMC1-DSI® receiver plates, compiled and analyzied with PONEMAH® physiology platform software.

[4] = phase I study #14441, pharmacokinetics of co-administration; type: in vivo, human; details: for half-life / Tmax: male, human, plasma, po; for Tmax: read-out: median tmax
Source text: The study was designed as a randomized, single-blind, placebo-controlled, group-comparison, dose-escalation study.

[5] = test system: involved metabolic enzymes; details: stated as fact; cited from earlier work
[6] = previous studies; single administration of 2.0 mg BAY 60-4552; cited from earlier work
rabbits = details: intravenous and oral applications; cited from earlier work

COC(=O)Nc1c(N)nc(-c2nn(Cc3ccccc3F)c3ncccc23)nc1N [BAY 60-4552, methyl-4,6-diamino-2-[1-(2-fluorobenzyl)-1H-pyrazolo[3,4-b]pyridin-3-yl]-5-pyrimidinylcarbamate]
penile erection (penile length) ([1]; low SNP 0.02 mg/kg i.v., 3 and 10 mg/kg p.o. stand alone): able to induce physiologically relevant erections | erections, stand alone treatment [2]: significant erections | decrease in mean arterial blood pressure ([3]; 1 mg/kg p.o.): −5 mmHg | heart rate increase ([3]; 1 mg/kg p.o.): +24 bpm | decrease in blood pressure ([3]; 3 mg/kg): −11 mmHg | heart rate increase ([3]; 3 mg/kg): +51 bpm | decrease in blood pressure ([3]; 10 mg/kg): −22 mmHg | heart rate increase ([3]; 10 mg/kg): +103 bpm | dose proportionality of exposure ([4]; BAY 60-4552 1 mg to 2 mg in combination with vardenafil 2.5 mg to 20 mg): increased in proportion to the dose | exposure following concomitant administration versus each compound alone [4]: consistent with historical data | time linearity of pharmacokinetics ([4]; in vivo): time linear | half-life [4]: 13 to 14 h | Tmax [4]: 0.5 to 1 h | inhibitor or inducer of the involved metabolic enzymes [5]: neither vardenafil nor BAY 60-4552 is an inhibitor or inducer | effect on heart rate and blood pressure [6]: no clinically relevant effect on heart rate and blood pressure

COC(=O)N(C)c1c(N)nc(-c2nn(Cc3ccccc3F)c3ncccc23)nc1N [BAY 63-2521, methyl-4,6-diamino-2-[1-(2-fluorobenzyl)-1H-pyrazolo[3,4-b]pyridin-3-yl]-5-pyrimidinyl-(methyl)carbamate]
erections (rabbits): induced stable erections

CCCc1nn(C)c2c(=O)[nH]c(-c3cc(S(=O)(=O)N4CCN(C)CC4)ccc3OCC)nc12 [Sildenafil, 3-[2-ethoxy-5-(4-methylpiperazin-1-yl)sulfonyl-phenyl]-7-methyl-9-propy 1-2,4,7,8-tetrazabicyclo[4.3.0]nona-3,8,10-trien-5-one, reference compound]
penile erection (penile length) ([1]; rabbit, in vivo): not able to produce any physiologically relevant erection

CCCc1nc(C)c2c(=O)[nH]c(-c3cc(S(=O)(=O)N4CCN(CC)CC4)ccc3OCC)nn12 [Vardenafil, 2-(2-Ethoxy-5-(4-ethylpiperazin-1-yl-1-sulfonyl)phenyl)-5-methyl-7-propyl-3H-imidazo (5,1-f) (1,2,4)triazin-4-one, reference compound]
decrease in mean arterial blood pressure ([3]; 1 mg/kg p.o.): −4 mmHg | heart rate increase ([3]; 1 mg/kg p.o.): +14 bpm | dose proportionality of exposure ([4]; 20 mg vardenafil level): slightly higher than proportional exposure | exposure following concomitant administration versus each compound alone [4]: consistent with historical data | half-life [4]: 3 to 5 h | Tmax [4]: 0.75 to 1 h | dose proportionality of AUC and Cmax ([4]; vardenafil 2.5 mg to 10 mg in combination with 1 mg or 2 mg BAY 60-4552): dose-proportional
